The source of these data is US20260256889A1, “Pharmaceutical formulations comprising a cyclodextrin” (Novo Nordisk A/S, priority 2021, published 2026).

The nature of the data set: Optimal pH (chemical and physical stability across the pH range). In kind it is physicochemical. The text has this: The person skilled in the art can easily find the amylin receptor agonist's optimal pH by testing its chemical and physical stability, in an aqueous solution essentially consisting of the amylin receptor agonist, a buffer and water for injection, across the pH range.
The person skilled in the art can easily find the GLP-1 receptor agonist's optimal pH by testing its chemical and physical stability, in an aqueous solution essentially consisting of the GLP-1 receptor agonist, a buffer and water for injection, across the pH range. The physical stability of the GLP-1 receptor agonist may be a reflection of its isoelectric point, which may coincide with the pH where poorest physical stability might be expected.

As to “N^6.26-{18-[N-(17-carboxyheptadecanoyl)-L-γ-glutamyl]-10-oxo-3,6, 12, 15-tetraoxa-9,18-diazaoctadecanoyl}-[8-(2-amino-2-propanoic acid),34-L-arginine] human glucagon-like peptide 1 (7-37) [Semaglutide]”, the “pH at which optimally stable” value came out at 7.4.
